Patent EP4635958A1, “PYRIMIDINE-CONTAINING POLYCYCLIC DERIVATIVE INHIBITOR, AND PREPARATION METHOD THEREFOR AND USE THEREOF” (Shanghai Hansoh Biomedical Co., Ltd., priority 2022, dated 2024)

Assays:
[1] = tested on: GP2D; experiment: Inhibition of proliferation of KRAS G12D mutant tumor cell line GP2D (CellTiter-Glo); settings: Homo sapiens, GP2d, 72 h, read-out: GP2D IC50
[2] = target: KRAS WT (Homo sapiens, UniProt P01116); experiment: KRAS WT biochemical assay (Table 1, no method of its own); format: binding; settings: read-out: KRAS WT Biochemical IC50
Sequence of KRAS WT (P01116 1-188 isoform P01116-2): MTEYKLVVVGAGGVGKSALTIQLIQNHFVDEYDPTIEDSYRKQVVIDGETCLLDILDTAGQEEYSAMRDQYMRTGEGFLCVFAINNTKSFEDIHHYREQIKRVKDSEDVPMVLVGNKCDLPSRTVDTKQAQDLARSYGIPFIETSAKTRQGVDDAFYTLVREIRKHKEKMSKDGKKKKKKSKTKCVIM

[3] = target: T1, KRAS G12D-SOS1 (Homo sapiens, UniProt P01116, G12D); experiment: Blocking of KRAS G12D-SOS1 protein binding (Cisbio KRAS-G12D/SOS1 Binding Assay Kit, time-resolved fluorescence); settings: KRAS G12D-GTP and SOS1 protein, signal ratio 665nm/620nm; read-out: G12D SOS1 biochemical IC50
T1 construct: purchased Cisbio 63ADK000CB17PEG
T1 sequence (P01116 1-188 isoform P01116-2 G12D): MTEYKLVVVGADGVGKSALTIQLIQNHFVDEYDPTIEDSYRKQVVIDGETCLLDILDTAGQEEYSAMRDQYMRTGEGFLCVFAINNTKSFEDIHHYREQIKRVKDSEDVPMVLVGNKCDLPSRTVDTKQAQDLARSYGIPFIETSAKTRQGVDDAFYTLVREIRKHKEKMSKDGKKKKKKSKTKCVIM
Text: • 1. Experimental objective: […] Experimental reagents and instruments The centrifuge (5810R) was purchased from Eppendorf; the pipette was purchased from Eppendorf or Rainin; and the microplate reader was purchased from BioTek (United States) with a model of SynergyH1 multifunctional microplate reader. KRAS-G12D/SOS1 Binding Assay Kit was purchased from Cisbio, with a catalog number of 63ADK000CB17PEG; GTP was purchased from Sigma, with a catalog number of G8877; 384-well plate was purchased from Perkin Elmer, with a catalog number of 6007299. The Diluent buffer in the kit was used to dilute the compound into 10× compound solution of different concentrations, and 2 uL was added to each well of the 384-well plate. Tag2-KRAS G12D protein and GTP were formulated into a mixed solution of 5×KRAS G12D-GTP protein using Diluent buffer, and Tag1-SOS1 protein was formulated into a 5×SOS1 protein solution using Diluent buffer. Each solution was added to the 384-well plate separately at 4 uL per well, and incubated at room temperature for 15 min. A mixed solution of 2× anti-Tag1-Tb^3+ and anti-Tag2-XL665 formulated using detection buffer was added to the 384-well plate at 10 µL per well, and incubated at 4°C in the dark for 3 h.

[4] = Pharmacokinetic determination in mice (IV and PO, plasma, LCMS/MS); format: in vivo, Balb/c mice; settings: male, Balb/c, mouse, in vivo; for AUC / C0 / clearance / half-life: iv, 1 mg/kg
In short: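 Male Balb/c mice, fasted overnight (n=3 per route): PO 30 mg/kg in 10% Captisol/50 mM citrate pH 5.0, or IV 1 mg/kg in 5% DMSO/10% Solutol HS15/85% PBS. Orbital blood sampled predose to 24 h; EDTA plasma analysed by LC-MS/MS.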

[5] = tested on: AsPC-1; experiment: Inhibition of proliferation of KRAS G12D mutant tumor cell line AsPC-1 (CellTiter-Glo); format: cell-based; settings: Homo sapiens, ASPC1, about 72 h
In short: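 KRAS G12D-mutant AsPC-1 cells plated overnight at 37 °C/5% CO2, then exposed to serial compound dilutions (DMSO/medium, vehicle control) for about 72 h. Viability read by CellTiter-Glo luminescence; inhibition rate vs concentration fitted by nonlinear regression for IC50.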

[6] = Pharmacokinetic determination in rats (IV and PO, plasma, LCMS/MS); format: in vivo, SD rats; settings: male, SD, rat, in vivo
In short: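 Male SD rats (3/group), fasted overnight, dosed PO at 30 mg/kg in 10% Captisol/50 mM citrate pH 5.0 or IV at 1 mg/kg in 5% DMSO/10% Solutol HS15/85% PBS. Jugular plasma (EDTA-2K) sampled predose to 24 h; analysed by LCMS/MS.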

[7] = tested on: human colorectal cancer cell line (GP2D); experiment: Anti-tumor efficacy in mouse transplanted tumor model of human colorectal cancer cell line (GP2D); format: in vivo, mice (BALB/c nude)

Structure (SMILES) | IC50 [1] [nM] | IC50 [2] [nM] | IC50 [3] [nM] | AUC [4] [µg·h/mL] | C0 [4] [µg/mL] | clearance [4] [L/h/kg] | half-life [4] [h] | also measured
C#Cc1c(F)ccc2cc(O)cc(-c3nc4c5c(nc(OCC6(CN7CCC(=C(F)F)C7)CC6)nc5c3F)N3CC5CCC(N5)C3CO4)c12 (stereo not shown) [Example 14-1] | 1.5 | 153 | 4.3 |  |  |  |  | 
C#Cc1c(F)ccc2cc(O)cc(-c3nc4c5c(nc(OCC6(CN7CCC(=CF)C7)CC6)nc5c3F)N3CC5CCC(N5)C3CO4)c12 (stereo not shown) [Example 15-1] | 0.76 | 26 | 3 |  |  |  |  | 
C#Cc1c(F)ccc2cc(O)cc(-c3nc4c5c(nc(OCC6(CN7CC8CC(=C(F)F)CC8C7)CC6)nc5c3F)N3CC5CCC(N5)C3CO4)c12 (stereo not shown) [Example 17-1] | 1.2 | 58 | 2.6 |  |  |  |  | 
C#Cc1c(F)ccc2cc(O)cc(-c3nc4c5c(nc(OCC6(CN7CCC(=NOC)CC7)CC6)nc5c3F)N3CC5CCC(N5)C3CO4)c12 [Example 21-1, 1-((1-((((5aS,6S,9R)-2-(8-ethynyl-7-fluoro-3-hydroxylnaphthalen-1-yl)-1-fluoro-5a,6,7,8,9,10-hexahydro-5H-4-oxa-3,10a,11,13,14-pentaaza-6,9-methylnaphtho[1,8-ab]hept-12-yl)oxy)methyl)cyclopropyl)methyl)piperidine-4-one-oxo-methyloxime] | 0.75 | 60 | 1.9 | 0.253 | 0.939 | 0.846 | 9.1 | IC50 [5]: 3.1 nM
C#Cc1c(F)ccc2cc(O)cc(-c3ncc4c(N5CC6CCC(C5)N6)nc(OC[C@@]56CCCN5C[C@H](F)C6)nc4c3F)c12 [MRTX-1133, reference compound] |  |  |  | 0.305 | 0.854 | 3.3 | 11.1 | AUC ([6]; iv, 1 mg/kg): 0.367 µg·h/mL; C0 ([6]; iv, 1 mg/kg): 2.49 µg/mL; clearance ([6]; iv, 1 mg/kg): 2.7 L/h/kg; half-life ([6]; iv, 1 mg/kg): 2.7 h; Cmax ([6]; po, 30 mg/kg): 0.011 µg/mL; Tmax ([6]; po, 30 mg/kg): 2 h; Tumor volume (mm^3, Mean ± SD) Day 0 ([7]; 10mpk, IV*BID, Day 0): 167 mm^3; TGI(%) Day 14 ([7]; 10mpk, IV*BID, Day 14): 143.79%; Tumor volume (mm^3, Mean ± SD) Day 14 ([7]; 10mpk, IV*BID, Day 14): 94 mm^3; ΔT/ΔC(%) Day 14 ([7]; 10mpk, IV*BID, Day 14): 11.89%; tumor inhibition effect (in words) ([7]; intravenous administration dose of 10 mg/kg): inhibition effect of tumor regression; Cmax ([4]; po, 30 mg/kg): 0.011 µg/mL; Tmax ([4]; po, 30 mg/kg): 2 h
